Source: patent US7332296B2, “Screening assay for enzymes involved in pathophysiology using SELDI-TOF mass spectrometry” (Wright State University, priority 2004, dated 2008)

Key:
[1] = biological target: T1, Plasma ACE1 (Mus musculus, UniProt P09470); assay: SELDI-TOF-MS assay of ACE activity in plasma (Ang I substrate, Ang II product); format: biochemical; settings: data not shown
T1 construct: Plasma ACE1 converted Ang I (Ang 1-10; 1296.5 m/z) to Ang II; from tissue; host or cells: mouse plasma (crude, 0.5 µl)
T1 sequence (P09470 35-1237 limits assumed): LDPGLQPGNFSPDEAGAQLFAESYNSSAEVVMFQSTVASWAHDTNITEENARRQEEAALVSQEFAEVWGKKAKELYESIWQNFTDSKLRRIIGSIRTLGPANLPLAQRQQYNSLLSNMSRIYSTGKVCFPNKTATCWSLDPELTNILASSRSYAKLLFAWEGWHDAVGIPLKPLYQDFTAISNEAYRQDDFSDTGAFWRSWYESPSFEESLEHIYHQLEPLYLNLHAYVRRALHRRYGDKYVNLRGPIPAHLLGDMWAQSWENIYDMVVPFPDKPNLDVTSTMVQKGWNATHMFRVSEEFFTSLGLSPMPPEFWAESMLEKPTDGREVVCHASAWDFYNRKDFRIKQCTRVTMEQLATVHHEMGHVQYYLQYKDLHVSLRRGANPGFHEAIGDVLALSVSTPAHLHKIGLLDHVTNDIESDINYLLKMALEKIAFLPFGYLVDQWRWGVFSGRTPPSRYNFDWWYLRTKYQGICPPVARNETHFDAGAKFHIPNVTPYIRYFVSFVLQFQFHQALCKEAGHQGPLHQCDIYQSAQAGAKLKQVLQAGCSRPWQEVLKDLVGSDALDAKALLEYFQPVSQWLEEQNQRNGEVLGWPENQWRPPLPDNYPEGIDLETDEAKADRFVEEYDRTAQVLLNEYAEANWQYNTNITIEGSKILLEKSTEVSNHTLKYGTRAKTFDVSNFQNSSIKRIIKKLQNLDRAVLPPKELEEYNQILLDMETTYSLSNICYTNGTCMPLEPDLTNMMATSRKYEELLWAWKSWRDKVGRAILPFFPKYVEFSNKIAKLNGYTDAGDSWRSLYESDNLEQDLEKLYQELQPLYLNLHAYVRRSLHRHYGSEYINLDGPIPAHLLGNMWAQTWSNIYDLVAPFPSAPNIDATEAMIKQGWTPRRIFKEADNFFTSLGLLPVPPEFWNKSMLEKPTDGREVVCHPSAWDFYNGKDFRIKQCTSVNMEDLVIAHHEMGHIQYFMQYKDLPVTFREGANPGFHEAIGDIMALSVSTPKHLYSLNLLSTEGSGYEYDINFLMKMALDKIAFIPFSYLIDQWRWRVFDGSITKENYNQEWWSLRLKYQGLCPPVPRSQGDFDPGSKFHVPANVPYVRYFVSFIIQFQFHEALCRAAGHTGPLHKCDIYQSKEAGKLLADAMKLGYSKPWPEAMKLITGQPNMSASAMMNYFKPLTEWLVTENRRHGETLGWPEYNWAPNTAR

[2] = biological target: T2, renin (Mus musculus, UniProt P06281); assay: SELDI-TOF-MS assay of renin activity in plasma (AGT substrate; sequential renin and ACE1); format: biochemical; settings: AGT + plasma + captopril (10 μM); FIG. 1F
T2 construct: Plasma incubated with AGT (1759, m/z) results in peptides with m/z that matched Ang 1 and Ang II; from tissue; host or cells: mouse plasma (crude, 0.5 µl)
T2 sequence (P06281 72-402): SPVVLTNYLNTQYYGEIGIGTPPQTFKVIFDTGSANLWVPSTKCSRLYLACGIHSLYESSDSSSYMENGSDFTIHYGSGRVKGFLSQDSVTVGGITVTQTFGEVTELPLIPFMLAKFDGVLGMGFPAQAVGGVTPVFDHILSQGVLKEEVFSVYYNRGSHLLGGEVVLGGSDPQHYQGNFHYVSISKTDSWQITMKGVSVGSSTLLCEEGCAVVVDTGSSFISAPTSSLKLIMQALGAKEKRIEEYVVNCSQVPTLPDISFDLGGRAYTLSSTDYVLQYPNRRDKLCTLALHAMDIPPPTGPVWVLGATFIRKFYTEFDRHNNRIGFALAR
Experimental: For measurement of enzyme activities, substrates (Ang II or AGT) were incubated with plasma or tissue extracts and the peptide products were measured using SELDI-TOF MS. For ACE activity, plasma (0.5-2.5 μl) or tissue extracts (1 μg protein) were incubated in 50 μl MES buffer (50 mM, pH 6.7) containing 2 mM PMSF and varying concentrations of Ang I(0.1-10 μM) at 37° C. One μl of the reaction mixture was spotted onto ProteinChip arrays and analyzed as previously described in Cool, D. R. & Hardiman, A., “C-Terminal sequencing of peptide hormones using carboxypeptidase Y and SELDI-TOF mass spectrometry” Biotechniques 36, 32-34 (2004), incorporated herein by reference. […]. […]

c1cnc2c(c1)ccc1cccnc12 [1, 10 phenanthroline]
ACE activity (conversion of Ang I to Ang II) ([1]; 0.44 mM 1, 10 phenanthroline): blocked

O=C(O)CN(CCN(CC(=O)O)CC(=O)O)CC(=O)O [EDTA]
ACE activity (conversion of Ang I to Ang II) ([1]; 10 mM EDTA): blocked

C[C@H](CS)C(=O)N1CCC[C@H]1C(=O)O [captopril]
effect on renin activity [2]: no effect
